From US6403816B1 (Dabur Research Foundation, priority 1997, dated 2002)

Columns and labels:
[1] = system: human melanoma cell lines, Mel-1, Mel-2, and Mel-4; conditions: Mel-1, Mel-2, Mel-4; cited from earlier work
[2] = system: MEL-2 cells; conditions: cited from earlier work
[3] = system: A431, BC-1, COL-2, HT1080, KB, LNCaP, LU-1, U373, ZR-75-1; conditions: cited from earlier work
[4] = system: DU145; experiment: Tumor cell cytotoxicity assay, prostate; type: cell-based; conditions: for Prostate ECS Ratio: ED50 DU145 / ED50 ECV304; for Prostate DU145 (ED50): concentration causing 50% cytotoxicity
Source text: (§1) The cytotoxicity assays for tumor cells have been described in detail in our application Ser. No. 09/040,856 filed in U.S. on Mar. 18, 1998.

[5] = system: PA-1; experiment: Tumor cell cytotoxicity assay, ovary; type: cell-based; conditions: for Ovary ECS Ratio: ED50 PA-1 / ED50 ECV304; for Ovary PA-1 (ED50): concentration causing 50% cytotoxicity
Source text: as §1

[6] = system: HT-29; experiment: Tumor cell cytotoxicity assay, colon; type: cell-based; conditions: for Colon ECS Ratio: ED50 HT-29 / ED50 ECV304; for Colon HT-29 (ED50): concentration causing 50% cytotoxicity
Source text: as §1

[7] = system: ECV304; experiment: ECV304 endothelial cell proliferation, MTT assay; type: cell-based, human; conditions: concentration causing 50% cytotoxicity; MTT after 72 hours
Description: 30 μl of ECV304 cell suspension (50×10^4 cells/ml in RPMI 1640 containing 10% FBS) followed by 150 μl of medium was added to the wells of a 96-well tissue culture plate (Nunc, Denmark) and incubated (37° C., 5% CO2) overnight. […] Each concentration was plated in triplicates. 20μl of medium alone was added to control wells. After 72 hours of incubation an MTT assay (Mosmann, 1983) was performed and percentage inhibition in proliferation of treated cells was calculated with respect to control cells.

[8] = system: L132; experiment: Tumor cell cytotoxicity assay, lung; type: cell-based; conditions: for Lung ECS Ratio: ED50 L132 / ED50 ECV304; for Lung L132 (ED50): concentration causing 50% cytotoxicity
Source text: as §1

[9] = system: ECV304; experiment: Tube-like-structure (TLS) formation of ECV304 cells on Matrigel; type: cell-based, human; conditions: 24-48 hours
Description: Matrigel (70 μl) was placed into each well of a 96-well culture plate at 4° C. and was allowed to polymerize by incubation at 37° C. for 30 min. ECV304 (1×10^4) cells were seeded on the Matrigel in 200 μl DMEM containing 10% FBS. […] Five different phase-contrast microscopic fields (4×) were viewed and total tube area of the tube-like-structures (TLS) measured using Video Pro 32 Image Analysis system. Percent reduction in total tube area was given as the mean of the data from five fields. Percent inhibition of TLS was calculated with reference to Controls(no drug).

| SMILES | Growth of melanoma cell lines [1] | In vitro growth of MEL-2 cells [2] | ED50, other cell lines tested [3] | Prostate ECS Ratio [4] | Prostate DU145 (ED50) [4] | Ovary ECS Ratio [5] | Ovary PA-1 (ED50) [5] | Colon ECS Ratio [6] | Colon HT-29 (ED50) [6] | Endothelial ECV304 (ED50) [7] | Lung ECS Ratio [8] | Lung L132 (ED50) [8] | % reduction in total tube area ([9]; 0.5 μg/ml) | % reduction in total tube area ([9]; 2 μg/ml) | % reduction in total tube area ([9]; 4 μg/ml) |
| --- | --- | --- | --- | --- | --- | --- | --- | --- | --- | --- | --- | --- | --- | --- | --- |
| C=C(C)[C@@H]1CC[C@]2(C(=O)O)CC[C@]3(C)[C@H](CC[C@@H]4[C@@]5(C)CC[C@H](O)C(C)(C)[C@@H]5CC[C@]43C)[C@@H]12 [Betulinic acid] | inhibited significantly | inhibit in vitro growth | greater than 20 μg/ml |  |  |  |  |  |  |  |  |  |  |  |  |
| C=C(C)C1CCC2(C(=O)O)CCC3(C)C(CCC4C5(C)CCC(=NNc6ccccc6)C(C)(C)C5CCC43C)C12 (stereo not drawn) [MJ353-RS] |  |  |  | 2.7 | 6.5 µg/mL | 2.08 | 5 µg/mL | 4.2 | >10 µg/mL | 2.4 µg/mL | 1.9 | 4.5 µg/mL |  |  |  |
| COC(=O)CCOC(=O)C12CCC(C(C)(Br)CBr)C1C1CCC3C4(C)CC(Br)C(=O)C(C)(C)C4CCC3(C)C1(C)CC2 (stereo not drawn) [MJ548-RS] |  |  |  | >4 | >10 µg/mL | 1.56 | 3.9 µg/mL | 4.0 | >10 µg/mL | 2.5 µg/mL | >4 | >10 µg/mL |  |  |  |
| CC(C)C1CCC2(C(=O)O)CCC3(C)C(CCC4C5(C)CCC(NNc6ccccc6)C(C)(C)C5CCC43C)C12 (stereo not drawn) [MJ878-RS] |  |  |  | 19.8 | 9.9 µg/mL | 7.0 | 3.5 µg/mL | 3.5 | 1.75 µg/mL | 0.5 µg/mL | 1.6 | 0.8 µg/mL |  |  |  |
| COc1ccc(NNC2CCC3(C)C(CCC4(C)C3CCC3C5C(C(C)C)CCC5(C(=O)O)CCC34C)C2(C)C)cc1 (stereo not drawn) [MJ912-RS] |  |  |  | 21.1 | 8.5 µg/mL |  |  | 0.87 | 0.35 µg/mL | 0.4 µg/mL | >10 | >4 µg/mL |  |  |  |
| CC(C)C1CCC2(C(=O)O)CCC3(C)C(CCC4C5(C)CCC(OC(=O)c6cc(F)cc(F)c6)C(C)(C)C5CCC43C)C12 (stereo not drawn) [MJ935-RS] |  |  |  | 4.5 | 3.2 µg/mL |  |  | >14.3 | >10 µg/mL | 0.7 µg/mL | 1.7 | 1.2 µg/mL |  |  |  |
| CC(C)C1CCC2(C(=O)O)CCC3(C)C(CCC4C5(C)CCC(OC(=O)c6ccc(F)cc6F)C(C)(C)C5CCC43C)C12 (stereo not drawn) [MJ937-RS] |  |  |  | 3.5 | 2.5 µg/mL | 2.3 | 1.6 µg/mL | 2.4 | 1.7 µg/mL | 0.7 µg/mL | 1.5 | 1.1 µg/mL | 16.7% | 21% | 21.7% |
| C=C(C)C1CCC2(C(=O)O)CCC3(C)C(CCC4C5(C)CCC(OC(=O)c6cccc(C(F)(F)F)c6)C(C)(C)C5CCC43C)C12 (stereo not drawn) [MJ939-RS] |  |  |  | >11.1 | >10 µg/mL | >4.4 | >4 µg/mL | >11.1 | >10 µg/mL | 0.9 µg/mL | 3.0 | 2.7 µg/mL |  |  |  |
| CC(C)C1CCC2(C(=O)O)CCC3(C)C(CCC4C5(C)CCC(OC(=O)c6ccccc6C(F)(F)F)C(C)(C)C5CCC43C)C12 (stereo not drawn) [MJ943-RS] |  |  |  | >1.5 | >4 µg/mL | >1.53 | >4 µg/mL | 3.84 | >10 µg/mL | 2.6 µg/mL | 1.5 | 4 µg/mL |  |  |  |
| CC(C)C1CCC2(C(=O)O)CCC3(C)C(CCC4C5(C)CCC(N=Cc6ccc(F)c(F)c6)C(C)(C)C5CCC43C)C12 (stereo not drawn) [MJ998-RS] |  |  |  | 6.2 | 2.2 µg/mL | 3.7 | 1.3 µg/mL | 11.4 | 4 µg/mL | 0.35 µg/mL | 7.1 | 2.5 µg/mL | 21.1% | 13.4% | 33.4% |
| CC(C)C1CCC2(C(=O)O)CCC3(C)C(CCC4C5(C)CCC(N=Cc6ccc(F)cc6F)C(C)(C)C5CCC43C)C12 (stereo not drawn) [MJ1065-RS] |  |  |  | 1.04 | 2.5 µg/mL | 0.54 | 1.3 µg/mL | 2.04 | 4.9 µg/mL | 2.4 µg/mL | 1.4 | 3.4 µg/mL | 23.4% | 16.7% | 46.7% |
| CC(C)C1CCC2(C(=O)O)CCC3(C)C(CCC4C5(C)CCC(=NOCc6ccc([N+](=O)[O-])cc6)C(C)(C)C5CCC43C)C12 (stereo not drawn) [MJ1098-RS] |  |  |  | 2.5 | 1.5 µg/mL | 2.7 | 1.6 µg/mL | 4.3 | 2.6 µg/mL | 0.6 µg/mL | 2.1 | 1.3 µg/mL | 15% | 7.5% | 10% |
| C=CC(=O)OC(=O)C12CCC(C(=C)C)C1C1CCC3C4(C)CCC(O)C(C)(C)C4CCC3(C)C1(C)CC2 (stereo not drawn) [MJ1101-RS] |  |  |  | >2.5 | >10 µg/mL | >1 | >4 µg/mL | 2.5 | >10 µg/mL | 4.0 µg/mL | 0.43 | 1.7 µg/mL |  |  |  |
| C=CC(=O)OC(=O)C12CCC(C(C)C)C1C1CCC3C4(C)CCC(O)C(C)(C)C4CCC3(C)C1(C)CC2 (stereo not drawn) [MJ1103-RS] |  |  |  | >2.0 | >4 µg/mL | 0.75 | 1.5 µg/mL | 5.0 | 10 µg/mL | 2.0 µg/mL | 2.0 | 4 µg/mL |  |  |  |
| C=C(C)C1CCC2(C(=O)O)CCC3(C)C(CCC4C5(C)CCC(OC(=O)c6ccc(CCCCC)cc6)C(C)(C)C5CCC43C)C12 (stereo not drawn) [MJ1104-RS] |  |  |  | 1.05 | 2 µg/mL | >2.1 | >4 µg/mL | 1.84 | 3.5 µg/mL | 1.9 µg/mL | 3.1 | 5.9 µg/mL |  |  |  |
| C=C(C)C1CCC2(C(=O)O)CCC3(C)C(CCC4C5(C)CCC(OC(=O)Cc6cc(OC)ccc6OC)C(C)(C)C5CCC43C)C12 (stereo not drawn) [MJ1108-RS] |  |  |  | 0.55 | 1 µg/mL |  |  | >5.6 | >10 µg/mL | 1.8 µg/mL | 2.5 | 4.6 µg/mL |  |  |  |
| C=C(C)C1CCC2(C(=O)O)CCC3(C)C(CCC4C5(C)CCC(OC(=O)c6ccc(CCCCCCC)cc6)C(C)(C)C5CCC43C)C12 (stereo not drawn) [MJ1138-RS] |  |  |  | >5.8 | >10 µg/mL | >2.3 | >4 µg/mL | >5.89 | >10 µg/mL | 1.7 µg/mL | 4.1 | 7 µg/mL |  |  |  |
